The text below walks through data of patent publication US20230302010A1, “2-((4S)-6-(4-CHLOROPHENYL)-1-METHYL-4H-BENZO[C]ISOXAZOLO[4,5-E]AZEPIN-4-YL)ACETAMIDE FOR TREATING THROMBOCYTHEMIA” (Constellation Pharmaceuticals, Inc., priority 2020, published 2023).

The test system of assay [1] is CD34+ cells isolated from healthy donor bone marrow. Briefly: Megakaryocyte differentiation of CD34+ cells (FACS, CD41a expression). The assay is classed as cell-based. Particulars: 14 days, FACS (FIG. 2). On the procedure:
The effects of Compound 1 on megakaryocyte differentiation and proliferation were evaluated using CD34+ cells isolated from healthy donor bone marrow (data on file). The CD34+ cells were grown in megakaryocyte differentiation serum-free stem cell differentiation base medium with a megakaryocyte-driving cytokine cocktail for 14 days with DMSO or Compound 1 at concentrations ranging from 3 nM to 500 nM. The cells were then stained for CD34 (progenitor marker), CD45 (leukocyte marker) and CD41a (mature megakaryocyte marker) and assessed by FACS for viability and marker expression. CD41a expression and cell size were used as markers of megakaryocyte differentiation. […] The shift from high to low CD41a expression began at approximately 50 nM, with pronounced effects observed at 200 to 500 nM, as shown in FIG. 2.

The test system of assay [2] is IL6 release from THP-1 acute leukemia cells. Briefly: IL6 release from lipopolysaccharide-treated THP-1 cells. The format is cell-based. Conditions: Homo sapiens; THP-1 cells exposed to lipopolysaccharide, then compound for 16 hours; read-out: IL6 release inhibition IC50. How it is done: Compound 1 was assessed for its ability to suppress the expression of NF-κB target genes in two experiments. In one experiment, THP-1 acute leukemia cell lines were exposed to lipopolysaccharide treatment and then Compound 1 for 16 hours. […] In the other experiment, the ability of Compound 1 to suppress both IL6 and IL10 expression in TMD8 ABC-DLBCL cells was investigated (data on file). TMD8 cells were incubated with DMSO or 1.6 μM Compound 1 for 6 or 24 hours. RNA was then extracted from the cells and quantified using qRT-PCR.

The subject of assay [3] is patients with high-risk ET. Particulars: cited from earlier work.

Like-named read-outs stand apart in the source and are kept apart here.

The term IC50 denotes the concentration that inhibits the measured activity by half. For `Cc1noc2c1-c1ccccc1C(c1ccc(Cl)cc1)=N[C@H]2CC(N)=O` [Compound 1, 2-((4S)-6-(4-chlorophenyl)-1-methyl-4H-benzo[c]isoxazolo[4,5-e]azepin-4-yl)acetamide], in assay [1], the “concentration at which shift from high to low CD41a expression began” value is “approximately 50 nM”. Further, the IC50 in assay [2] is 69 nM.

For the molecule `NC(=O)NO` [HU, hydroxyurea], in assay [3] (14-year retrospective study, 166 high-risk ET patients), the “survival from the beginning of treatment” value is reported as 65%. For the same molecule, the patients who died in assay [3] (166 high-risk ET patients treated for a median of 4.5 years, median follow-up of seven years from diagnosis) was 23%. Besides, the 10-year overall survival in assay [3] (patients who achieved a complete response) is on record as 79%; in assay [3] (patients with HU resistance), 26%.
